Test results published in the NIST ThermoML archive (doi:10.1021/acs.jced.7b00866).
Numbers after ± are expanded uncertainties.

Settings: Liquid, Capillary tube (Ostwald / Ubbelohde) method

CCCCCCCCCCCC [dodecane]
viscosity (298.2 K, 6020 kPa): 1.461 ± 0.026 mPa·s
viscosity (298.2 K, 8050 kPa): 1.497 ± 0.032 mPa·s
viscosity (298.2 K, 10020 kPa): 1.533 ± 0.034 mPa·s
viscosity (303.3 K, 10020 kPa): 1.394 ± 0.03 mPa·s
viscosity (303.4 K, 8050 kPa): 1.365 ± 0.03 mPa·s
viscosity (304.9 K, 6020 kPa): 1.348 ± 0.028 mPa·s
viscosity (313.3 K, 10020 kPa): 1.184 ± 0.025 mPa·s
viscosity (313.4 K, 8000 kPa): 1.162 ± 0.025 mPa·s
viscosity (314.5 K, 5990 kPa): 1.135 ± 0.025 mPa·s
viscosity (323.1 K, 8010 kPa): 1.007 ± 0.022 mPa·s
viscosity (323.4 K, 6050 kPa): 0.9748 ± 0.025 mPa·s
viscosity (323.4 K, 10000 kPa): 1.021 ± 0.023 mPa·s
viscosity (333.3 K, 8030 kPa): 0.8787 ± 0.021 mPa·s
viscosity (333.4 K, 10000 kPa): 0.8918 ± 0.022 mPa·s
viscosity (334.1 K, 6010 kPa): 0.8555 ± 0.023 mPa·s
viscosity (343.2 K, 8070 kPa): 0.7787 ± 0.02 mPa·s
viscosity (343.3 K, 5990 kPa): 0.7562 ± 0.02 mPa·s
viscosity (343.3 K, 10010 kPa): 0.79 ± 0.02 mPa·s
viscosity (353.4 K, 6080 kPa): 0.6746 ± 0.021 mPa·s
viscosity (353.4 K, 9980 kPa): 0.703 ± 0.019 mPa·s
viscosity (353.6 K, 8020 kPa): 0.6919 ± 0.02 mPa·s
viscosity (363.3 K, 10050 kPa): 0.6332 ± 0.019 mPa·s
viscosity (363.7 K, 8020 kPa): 0.6209 ± 0.019 mPa·s
viscosity (364 K, 6040 kPa): 0.6028 ± 0.019 mPa·s
viscosity (373.1 K, 10070 kPa): 0.5743 ± 0.019 mPa·s
viscosity (373.9 K, 8020 kPa): 0.5622 ± 0.019 mPa·s
viscosity (374 K, 6000 kPa): 0.5462 ± 0.019 mPa·s
viscosity (383 K, 6010 kPa): 0.5011 ± 0.019 mPa·s
viscosity (383.2 K, 10000 kPa): 0.523 ± 0.019 mPa·s
viscosity (383.4 K, 8050 kPa): 0.5137 ± 0.019 mPa·s
viscosity (393 K, 10020 kPa): 0.4798 ± 0.018 mPa·s
viscosity (393.1 K, 6080 kPa): 0.4584 ± 0.019 mPa·s
viscosity (393.6 K, 8030 kPa): 0.4694 ± 0.018 mPa·s
viscosity (403 K, 6040 kPa): 0.4213 ± 0.018 mPa·s
viscosity (403.1 K, 10040 kPa): 0.4407 ± 0.018 mPa·s
viscosity (404.1 K, 8020 kPa): 0.4304 ± 0.018 mPa·s
viscosity (412.9 K, 10010 kPa): 0.4076 ± 0.018 mPa·s
viscosity (413.2 K, 6080 kPa): 0.3885 ± 0.018 mPa·s
viscosity (413.7 K, 7990 kPa): 0.3987 ± 0.018 mPa·s
viscosity (423 K, 6080 kPa): 0.3581 ± 0.018 mPa·s
viscosity (423.4 K, 10000 kPa): 0.3765 ± 0.018 mPa·s
viscosity (423.9 K, 8050 kPa): 0.3686 ± 0.018 mPa·s
viscosity (432.9 K, 10020 kPa): 0.3504 ± 0.018 mPa·s
viscosity (433.2 K, 6010 kPa): 0.3334 ± 0.018 mPa·s
viscosity (433.3 K, 8000 kPa): 0.3405 ± 0.018 mPa·s
viscosity (443.2 K, 10050 kPa): 0.3257 ± 0.018 mPa·s
viscosity (443.5 K, 6020 kPa): 0.3092 ± 0.018 mPa·s
viscosity (443.5 K, 8010 kPa): 0.3152 ± 0.018 mPa·s
viscosity (453.3 K, 6020 kPa): 0.2855 ± 0.018 mPa·s
viscosity (453.3 K, 9950 kPa): 0.3036 ± 0.018 mPa·s
viscosity (454 K, 8040 kPa): 0.2936 ± 0.018 mPa·s
viscosity (463.3 K, 10010 kPa): 0.2839 ± 0.018 mPa·s
viscosity (463.4 K, 6040 kPa): 0.2664 ± 0.018 mPa·s
viscosity (464.1 K, 8020 kPa): 0.2738 ± 0.018 mPa·s
viscosity (473.3 K, 10050 kPa): 0.2657 ± 0.018 mPa·s
viscosity (473.4 K, 6040 kPa): 0.251 ± 0.018 mPa·s
viscosity (473.5 K, 8010 kPa): 0.2525 ± 0.018 mPa·s
viscosity (483.4 K, 6050 kPa): 0.2305 ± 0.018 mPa·s
viscosity (483.4 K, 8080 kPa): 0.2405 ± 0.018 mPa·s
viscosity (483.4 K, 10000 kPa): 0.2489 ± 0.018 mPa·s
viscosity (493.2 K, 10050 kPa): 0.2338 ± 0.018 mPa·s
viscosity (493.4 K, 6040 kPa): 0.216 ± 0.018 mPa·s
viscosity (493.4 K, 8010 kPa): 0.2247 ± 0.018 mPa·s
viscosity (502.7 K, 7960 kPa): 0.2075 ± 0.018 mPa·s
viscosity (503.2 K, 10010 kPa): 0.2197 ± 0.018 mPa·s
viscosity (503.4 K, 6080 kPa): 0.2005 ± 0.018 mPa·s
viscosity (513 K, 8040 kPa): 0.1945 ± 0.018 mPa·s
viscosity (513 K, 10000 kPa): 0.207 ± 0.018 mPa·s
viscosity (514.2 K, 6050 kPa): 0.186 ± 0.018 mPa·s
viscosity (523 K, 8000 kPa): 0.1822 ± 0.018 mPa·s
viscosity (523.7 K, 5970 kPa): 0.1737 ± 0.018 mPa·s
viscosity (523.7 K, 10040 kPa): 0.1949 ± 0.018 mPa·s
viscosity (533.3 K, 8040 kPa): 0.1736 ± 0.018 mPa·s
viscosity (533.5 K, 6040 kPa): 0.1638 ± 0.018 mPa·s
viscosity (533.5 K, 10070 kPa): 0.1825 ± 0.018 mPa·s
viscosity (542.9 K, 6010 kPa): 0.1526 ± 0.018 mPa·s
viscosity (542.9 K, 8060 kPa): 0.1603 ± 0.018 mPa·s
viscosity (542.9 K, 9950 kPa): 0.1682 ± 0.018 mPa·s
viscosity (552.9 K, 6070 kPa): 0.1419 ± 0.018 mPa·s
viscosity (552.9 K, 10020 kPa): 0.158 ± 0.018 mPa·s
viscosity (553.2 K, 8010 kPa): 0.1506 ± 0.018 mPa·s
viscosity (563 K, 6050 kPa): 0.1337 ± 0.018 mPa·s
viscosity (563 K, 8020 kPa): 0.1414 ± 0.018 mPa·s
viscosity (563 K, 10020 kPa): 0.1509 ± 0.018 mPa·s
viscosity (573 K, 6010 kPa): 0.124 ± 0.018 mPa·s
viscosity (573 K, 8020 kPa): 0.1347 ± 0.018 mPa·s
viscosity (573 K, 10040 kPa): 0.1437 ± 0.018 mPa·s
viscosity (582.8 K, 6000 kPa): 0.1159 ± 0.018 mPa·s
viscosity (582.8 K, 10010 kPa): 0.132 ± 0.018 mPa·s
viscosity (582.9 K, 7960 kPa): 0.1265 ± 0.018 mPa·s
viscosity (592.9 K, 8070 kPa): 0.12 ± 0.018 mPa·s
viscosity (593 K, 6020 kPa): 0.1104 ± 0.018 mPa·s
viscosity (593 K, 10000 kPa): 0.1263 ± 0.018 mPa·s
viscosity (602.9 K, 8020 kPa): 0.1128 ± 0.018 mPa·s
viscosity (603.1 K, 6010 kPa): 0.1048 ± 0.018 mPa·s
viscosity (603.1 K, 10010 kPa): 0.1186 ± 0.018 mPa·s
viscosity (612.9 K, 8020 kPa): 0.1058 ± 0.018 mPa·s
viscosity (613.1 K, 6040 kPa): 0.0969 ± 0.018 mPa·s
viscosity (613.1 K, 10010 kPa): 0.1116 ± 0.018 mPa·s
viscosity (623 K, 7990 kPa): 0.1003 ± 0.018 mPa·s
viscosity (623.2 K, 6050 kPa): 0.0908 ± 0.018 mPa·s
viscosity (623.2 K, 10050 kPa): 0.1056 ± 0.018 mPa·s
viscosity (632.8 K, 8040 kPa): 0.0933 ± 0.018 mPa·s
viscosity (633.5 K, 6020 kPa): 0.0848 ± 0.018 mPa·s
viscosity (633.5 K, 10010 kPa): 0.0992 ± 0.018 mPa·s
viscosity (643 K, 8050 kPa): 0.0878 ± 0.018 mPa·s
viscosity (643.4 K, 6020 kPa): 0.0789 ± 0.018 mPa·s
viscosity (643.4 K, 10010 kPa): 0.0943 ± 0.018 mPa·s
viscosity (652.9 K, 8020 kPa): 0.0824 ± 0.018 mPa·s
viscosity (653.4 K, 6070 kPa): 0.0733 ± 0.018 mPa·s
viscosity (653.4 K, 10040 kPa): 0.087 ± 0.018 mPa·s
viscosity (663.1 K, 8010 kPa): 0.0775 ± 0.018 mPa·s
viscosity (663.2 K, 6010 kPa): 0.0682 ± 0.018 mPa·s
viscosity (663.2 K, 10050 kPa): 0.0823 ± 0.018 mPa·s
viscosity (672.9 K, 8010 kPa): 0.0727 ± 0.018 mPa·s
viscosity (673.5 K, 6040 kPa): 0.0635 ± 0.018 mPa·s
viscosity (673.5 K, 9980 kPa): 0.0785 ± 0.018 mPa·s
viscosity (683.2 K, 8050 kPa): 0.0685 ± 0.018 mPa·s
viscosity (683.2 K, 10040 kPa): 0.0746 ± 0.018 mPa·s
viscosity (683.3 K, 6010 kPa): 0.059 ± 0.018 mPa·s
viscosity (693.2 K, 6010 kPa): 0.0548 ± 0.018 mPa·s
viscosity (693.2 K, 8020 kPa): 0.0643 ± 0.018 mPa·s
viscosity (693.2 K, 10010 kPa): 0.0712 ± 0.018 mPa·s
